Consider 22 compounds from patent US6136810A, “Pyrido[2,3-D]pyrimidine derivatives and pharmaceutical compositions thereof” (priority 1995, dated 2000).

The structures appear in SMILES notation.

The term IC50 denotes the concentration needed to halve the response being measured.

The first experiment deals with type IV phosphodiesterase. The experiment in a line: Type IV phosphodiesterase inhibition activity measuring test (in vitro). Format: biochemical. To be noted: Table 1; human granulocyte type IV PDE, 1 μM cAMP, 30° C.; read-out: Type IV PDE inhibition activity IC50. The protocol: The following assay was used for the evaluation of the capability of the compounds of the present invention to inhibit type IV phosphodiesterase.
1) Physiological saline (200 ml) supplemented with dextran (3%) was added to 500 ml of heparinized peripheral blood of a healthy person and incubated at 37° C. for 40 minutes to effect precipitation of erythrocytes. The supernatant after precipitation of erythrocytes was recovered and centrifuged once, and the resulting precipitate was suspended in buffer A (140 mM NaCl, 5 mM KCl, 5 mM glucose and 10 mM HEPES, pH 7.4), overlaid on a solution for density gradient centrifugation use (Ficoll solution) and then centrifuged at room temperature for 40 minutes at 450×g, thereby separating monocyte fraction and granulocyte fraction. The granulocyte fraction was washed once with buffer B (140 mM NaCl, 5 mM KCl; 1 mM CaCl2, 1 mM MgCl2, 5 mM glucose and 10 mM HEPES, pH 7.4) and suspended in buffer C (20 mM Bis-Tris, 5 mM dithioerythritol, 2 mM EGTA and 50 mM sodium acetate, pH 6.5) containing a protease inhibitor (50 μM phenyl-methyl-sulfonyl-fluoride, 5 μM pepstatin A, 40 μM leupeptin, 20 μM aprotinin or 2 mM benzamidine) and then the cells were disrupted using polytron and sonicator and subjected to ultracentrifugation (4° C., 100,000×g, 60 minutes) to give a soluble fraction.
2) The thus obtained soluble fraction was applied to a column of 1.6×10 cm packed with Q Sepharose which had been equilibrated with buffer C. Next, the column was washed with 300 ml of buffer C to remove non-absorbed protein. Phosphodiesterase was eluted with 200 ml of buffer C having 0.05 to 1.25 M linear gradient of sodium acetate to collect 40 fractions each containing 5.0 ml eluate. Each fraction was checked for cAMP- and cGMP-metabolizing phosphodiesterase activities. Fractions having no cGMP- but cAMP-metabolizing activity and showing disappearance of the metabolizing activity by 10 μM rolipram (a type IV phosphodiesterase selective inhibitor) were collected to be used as a stock solution for the examination of type IV phosphodiesterase inhibition activity.
3) A predetermined amount of each compound to be tested was subjected to 10 minutes of reaction at 30° C. in a reaction mixture containing 40 mM Tris-HCl (pH 8.0), 5 mM MgCl2, 4 mM 2-mercaptoethanol, 0.3 μM cilostamide (an III type phosphodiesterase selective inhibitor), 1 μM cAMP, 10 nM ^3 H-cAMP and the type IV phosphodiesterase stock solution. The reaction solution was boiled at 90° C. for 1 minute, cooled in an ice bath, mixed with 1 unit of 5'-nucleotidase and then subjected to 10 minutes of reaction at 30° C., and the reaction was stopped by the addition of 1 ml of methanol. The reaction solution was passed through a Dowex 1×8 column to adsorb un-hydrolyzed material and then the radioactivity was measured.
4) Concentration of each compound to be tested which inhibits 50% of the metabolic activity of type IV phosphodiesterase was calculated and expressed as IC50. Test results: Results of the measurement of the activity of the compounds of the present invention to inhibit type IV PDE are shown in Tables 1 and 2, together with the results of the compounds illustratively disclosed in the aforementioned U.S. Patent and similar comparative compounds which were separately synthesized.
For the compound `CCn1c(=O)nc(-c2cccc(Cl)c2)c2ccc(C(C)SC(C)=O)nc21` (centres unmarked) [Example 40, 7-(1-acetylthioethyl)-4-(3-chlorophenyl)-1-ethylpyrido[2,3-d]pyrimidin-2(1H)-one], the concentration for half-maximal inhibition (IC50) stood at 5.79 nM.

`CCc1ccc2c(-c3cccc(Cl)c3)nc(=S)n(CC)c2n1` [Example 41, 4-(3-Chlorophenyl)-1,7-diethylpyrido[2,3-d]pyrimidin-2(1H)-thione]: the IC50 turned out to be 0.85 nM.

`CCn1c(=O)nc(-c2cccc([N+](=O)[O-])c2)c2ccc(C)nc21` [Example 37, 1-Ethyl-7-methyl-4-(3-nitrophenyl)-pyrido[2;3-d]pyrimidin-2(1H)-one]: the IC50 amounted to 4.75 nM.

Regarding `CCc1ccc2c(C3CCCCC3)nc(=O)n(CC)c2n1` [Example 34, 4-Cyclohexyl-1,7-diethylpyrido[2,3-d]pyrimidin-2(1H)-one], the IC50 was determined as 1.47 nM.

Take `CCn1c(=O)nc(-c2cccc(Cl)c2)c2ccc(C(C)O)nc21` (centres unmarked) [Example 19, 4-(3-chlorophenyl)-1-ethyl-7-(1-hydroxyethyl)pyrido[2,3-d]pyrimidin-2(1H)-one]: the half-maximal inhibitory concentration (IC50) was found to be 8.08 nM.

As for `Cc1cccc(-c2nc(=O)n(CC3CC3)c3nc(C)ccc23)c1` [Example 33, 1-Cyclopropylmethyl-7-methyl-4-(3-methylphenyl)pyrido[2,3-d]pyrimidin-2(1H)-one], the IC50 came to 6.19 nM.

Regarding `CCn1c(=O)nc(-c2cccc(Cl)c2)c2ccc(C=NO)nc21` [Example 36, 4-(3-chlorophenyl)-1-ethyl-7-hydroxyiminomethylpyrido[2,3-d]pyrimidin-2(1H)-one], the IC50 was found to be 0.93 nM.

With `CCn1c(=O)nc(-c2cccc(Cl)c2)c2ccc(C3CC3)nc21` [Example 22, 4-(3-Chlorophenyl)-7-cyclopropyl-1-ethylpyrido[2,3-d]pyrimidin-2(1H)-one], the IC50 amounted to 7.8 nM.

The same experiment, now with this note: Table 2; human granulocyte type IV PDE, 1 μM cAMP, 30° C.; read-out: Type IV PDE Inhibition IC50.
Take `CCn1c(=O)nc(-c2cccc(C)c2)c2ccc(C)nc21` [Example 5, 1-Ethyl-7-methyl-4-(3-methylphenyl)-pyrido[2,3-d]pyrimidin-(1H)-one]: the IC50 amounted to 3.5 nM.

Take `CCn1c(=O)nc(-c2ccc(Cl)c(Cl)c2)c2cccnc21` [compound 5, 4-(3,-4-dichlorophenyl)-1-ethylpyrido[2,3-d]pyrimidin-2(1H)-one, reference compound]: the IC50 is more than 3000 nM.

In the case of `CCc1ccc2c(-c3cccc(Cl)c3)nc(=O)n(CC)c2n1` [Example 1, 4-(3-chlorophenyl)-1,7-diethylpyrido[2,3-d]pyrimidin-2(1H)-one], the IC50 was 0.81 nM.

Turning to `CC(C)n1c(=O)nc(-c2cccc(Cl)c2)c2cccnc21` [compound 6, 4-(3-chlorophenyl)-1-isopropylpyrido[2,3-d]pyrimidin-2(1H)-one, reference compound], the IC50 was determined as 803 nM.

In the case of `CC(C)n1c(=O)nc(-c2ccc(Cl)cc2)c2cccnc21` [compound 2, reference compound], the IC50 was more than 3000 nM.

On to `CCn1c(=O)nc(-c2cccc(Cl)c2)c2ccc(C)nc21` [Example 3, 4-(3-Chlorophenyl)-1-ethyl-7-methylpyrido[2,3-d]pyrimidin-2(1H)-one], for which the IC50 was determined as 2.32 nM.

As for `CCn1c(=O)nc(-c2cccc(C)c2)c2cccnc21` [compound 8, 4-(3-methylphenyl)-1-ethylpyrido[2,3-d]pyrimidin-2(1H)-one, reference compound], the IC50 is 612 nM.

On to `CCn1c(=O)nc(-c2ccccc2Cl)c2cccnc21` [compound 1, 4-(2-chlorophenyl)-1-ethylpyrido[2,3-d]pyrimidin-2(1H)-one, reference compound], for which the IC50 was found to be 2840 nM.

Regarding `CCn1c(=O)nc(-c2cccc(Br)c2)c2ccc(C)nc21` [Example 4, 4-(3-Bromophenyl)-1-ethyl-7-methylpyrido[2,3-d]pyrimidin-2(1H)-one], the IC50 worked out at 1.45 nM.

In the case of `CCc1ccc2c(-c3cccc(Br)c3)nc(=O)n(CC)c2n1` [Example 2, 4-(3-Bromophenyl)-1,7-diethylpyrido[2,3-d)pyrimidin-2(1H)-one], the IC50 was 1.15 nM.

On to `CCn1c(=O)nc(-c2cccc(Cl)c2)c2cccnc21` [compound 7, 4-(3-chlorophenyl)-1-ethylpyrido[2,3-d]pyrimidin-2(1H)-one, reference compound], for which the IC50 came to 308 nM.

For `CCn1c(=O)nc(-c2ccc(Cl)cc2)c2cccnc21` [compound 3, 4-(4-chlorophenyl)-1-ethylpyrido[2,3-d]pyrimidin-2(1H)-one, reference compound], the IC50 is more than 3000 nM.

On to `CCc1ccc2c(-c3cccc(C)c3)nc(=O)n(CC)c2n1` [Example 6, 1,7-Diethyl-4-(3-methylphenyl)pyrido[2,3-d]pyrimidin-2(1H)-one], for which the IC50 was 3.7 nM.

With `CC(C)n1c(=O)nc(-c2ccc(Cl)c(Cl)c2)c2cccnc21` [compound 4, reference compound], the IC50 is more than 3000 nM.

A further experiment relates to I, II, III and V type phosphodiesterase isozymes. Put plainly: Activity to inhibit various phosphodiesterase isozymes (selectivity for type IV). It is filed as biochemical, rat (types I, III); human (type V). The note with it: IC50 ratio vs types I. The text has this: [A] In order to evaluate selectivity of the compounds of the present invention for type IV phosphodiesterase, I, II, III and V type phosphodiesterase isozymes were purified in the following manner.
1) Solutions containing various phosphodiesterase (I, II and III types) isozymes were purified from rat heart muscle cells in the following manner. Under ether anesthesia, Wistar rat was subjected to thoracotomy to excise the heart. After removing blood by perfusion with physiological saline supplemented with heparin (1 unit/ml), the heart was finely chopped with scissors.
2) Solutions containing various phosphodiesterase isozymes were obtained from the thus obtained soluble fraction in the following manner. […] Each fraction was checked for cAMP- and cGMP-metabolizing phosphodiesterase activities. […] These fractions were separately collected to be used as phosphodiesterase (types I, II and III) stock solutions for the examination of selectivity.
3) A solution containing type V phosphodiesterase was prepared from peripheral blood of a healthy person in the following manner. A 200 ml portion of physiological saline supplemented with dextran (3%) was added to 500 ml of heparinized peripheral blood and incubated at 37° C. for 40 minutes to effect precipitation of erythrocytes. The supernatant fluid after precipitation of erythrocytes was recovered and centrifuged once, and the resulting precipitate was suspended in buffer B (140 mM NaCl, 5 mM KCl, 5 mM glucose and 10 mM HEPES, pH 7.4), overlaid on a solution for density gradient centrifugation use (Ficoll solution) and then centrifuged at room temperature for 40 minutes at 450×g, thereby separating monocyte fraction and granulocyte fraction.
Each fraction was checked for cAMP- and cGMP-metabolizing phosphodiesterase activities. Fractions having only cGMP metabolizing activity were collected to be used as the type V phosphodiesterase stock solution.
[B] Inhibitory activities were measured using the thus obtained stock solutions of various phosphodiesterase isozymes.
After completion of the reaction, the reaction mixture was boiled at 90° C. for 1 minute, cooled in an ice bath, mixed with 1 unit of 5'-nucleotidase and then subjected to 10 minutes of reaction at 30° C., and the reaction was stopped by adding 1 ml of methanol. The reaction solution was passed through a Dowex 1×8 column to effect adsorption of un-metabolized cAMP or cGMP and then radioactivity in the eluate was measured using a scintillation counter.
With `CCc1ccc2c(-c3cccc(Cl)c3)nc(=O)n(CC)c2n1` [Example 1, 4-(3-chlorophenyl)-1,7-diethylpyrido[2,3-d]pyrimidin-2(1H)-one], the “selectivity in inhibition activity against type IV PDE over the other types of PDE” value (“selectivity in inhibition activity” below) was not below 1000 times.

With `CCn1c(=O)nc(-c2cccc(Cl)c2)c2ccc(C)nc21` [Example 3, 4-(3-Chlorophenyl)-1-ethyl-7-methylpyrido[2,3-d]pyrimidin-2(1H)-one], the “selectivity in inhibition activity” value was not below 1000 times.

Regarding `CCn1c(=O)nc(-c2cccc(Br)c2)c2ccc(C)nc21` [Example 4, 4-(3-Bromophenyl)-1-ethyl-7-methylpyrido[2,3-d]pyrimidin-2(1H)-one], the “selectivity in inhibition activity” value was not below 1000 times.

With `CCn1c(=O)nc(-c2cccc(Cl)c2)c2ccc(C(C)O)nc21` (centres unmarked) [Example 19, 4-(3-chlorophenyl)-1-ethyl-7-(1-hydroxyethyl)pyrido[2,3-d]pyrimidin-2(1H)-one], the “selectivity in inhibition activity” value is reported as not below 1000 times.
